Consider six compounds from paper PMC7892644 (Cancer discovery, 2020).

The test system of experiment [1] is recombinant SOS1 and recombinant KRAS G12D. In words: AlphaScreen protein-protein interaction assay, SOS1 and KRAS G12D. It is filed as binding. As to conditions: KRAS-GDP, result in words.
The test system of experiment [2] is recombinant SOS1 and recombinant KRAS G12C. In words: AlphaScreen protein-protein interaction assay, SOS1 and KRAS G12C. Conditions: KRAS-GDP, result in words. It is filed as binding. (In general: In Alpha technology, singlet oxygen from a donor bead excites a nearby acceptor bead.)
Experiment [3] deals with panel of 24 cell lines, including 18 KRAS-mutated cell lines. As to the kind of experiment: 2D proliferation assays across a panel of 24 cell lines. It counts as cell-based.
For the next experiment, the system named is foreskin fibroblasts. In words: cells. Conditions: Fibroblast, read-out: IC50, proliferation.
The test system of experiment [4] is retinal pigment epithelial cells. As to the kind of experiment: Proliferation of retinal pigment epithelial cells. It counts as cell-based. As to conditions: Epithelial cell, read-out: IC50, proliferation.
Experiment [5] concerns primary smooth muscle cells. In words: Proliferation of primary smooth muscle cells. Conditions: read-out: IC50, proliferation. It counts as cell-based.
Experiment [6] has as its system pERK levels in isogenic NCI-H23 cell lines. In words: pERK levels in isogenic NCI-H23 cell lines.
Experiment [7] concerns panel of 24 cell lines, including 18 KRAS-mutated cell lines. As to the kind of experiment: 3D proliferation assays across a panel of 24 cell lines. It is filed as cell-based. As to conditions: for IC50: read-out: IC50, 3D proliferation.
Experiment [8] deals with KRAS Q61K mutant pancreatic PDX model. In words: KRAS Q61K mutant pancreatic PDX model efficacy. It is filed as in vivo, mice. Conditions: BI-3406 50 mg/kg bid, trametinib 0.1 mg/kg bid, 5 days on/2 days off.
Experiment [9] has as its system A375 cells (KRAS wild-type, BRAF V600E). As to the kind of experiment: 3D proliferation assay, A375. It counts as cell-based.
Experiment [10] relates to KRAS G12C-mutated MIA PaCa-2 xenografts. Conditions: 12 or 50 mg/kg twice daily; p<0.005 vs vehicle control.
Experiment [11] deals with NCI-H520 cells (KRAS wild-type). As to the kind of experiment: 3D proliferation assay, NCI-H520. It counts as cell-based.
The subject of experiment [12] is pERK levels in A375 melanoma cells (KRAS wild-type, BRAF V600E). In words: pERK inhibition in A375 cells. It is filed as cell-based. As to conditions: A375, 1 hour, 2D.

Like-named read-outs stand apart in the source and are kept apart here. Where only a bound is given, the exact number is not on record here.

In the case of `C=CC(=O)N1CCN(c2ncnc3c(F)c(-c4c(O)cccc4F)c(Cl)cc23)CC1` [ARS-1620], the “inhibition of SOS1 interaction with KRAS G12D” value in experiment [1] is “no effect”. Also, the “inhibition of SOS1 interaction with KRAS G12C” value in experiment [2] is reported as “able to interfere”.

`CNCc1ccccc1-c1csc([C@@H](C)Nc2nc(C)nc3cc(OC)c(OC)cc23)c1` [BAY293]: the “activity in 2D proliferation assays” value in experiment [3] is “no activity”.

Turning to `CC(=O)Nc1cccc(-n2c(=O)n(C3CC3)c(=O)c3c(Nc4ccc(I)cc4F)n(C)c(=O)c(C)c32)c1` [trametinib], the values for the IC50 (with foreskin fibroblasts; in [4]; in experiment [5]) were 85 nM, 12 nM and 843 nM, respectively.

For the compound `COc1cc2nc(C)nc(N[C@H](C)c3cc(N)cc(C(F)(F)F)c3)c2cc1O[C@H]1CCOC1` [BI-3406], the “activity in 2D proliferation assays” value in experiment [3] is reported as “no activity”. In addition, the “modulation of pERK” value in experiment [6] (NCI-H23 cells carrying the G12R variant) is recorded as “No modulation”. In addition, the “inhibition of pERK levels” value in experiment [6] (NCI-H23 cells carrying the Q61H oncogenic variant) is recorded as “weak inhibition”. For the same compound, the “reduction of pERK levels” value in experiment [6] (all KRAS variant isogenic NCI-H23 cell lines, independent of zygosity) is listed as about 50%. For the same compound, the IC50 was 9 to 220 nM in [7], over 5000 nM in experiment [4] and over 5000 nM in experiment [5]. For the same compound, the antitumor efficacy entry in experiment [8] is reported as “only weak efficacy”. The “effect on 3D growth” value in [9] and in experiment [11] was “not appreciably affected” throughout. Moreover, the tumor growth inhibition entry in experiment [10] is “prolonged dose-dependent tumor growth inhibition”. Moreover, the pERK modulation entry in [12] is recorded as “No pERK modulation”.

`Cc1[nH]c2ccccc2c1CCNCc1ccc(/C=C/C(=O)NO)cc1` [panobinostat]: the “effect on 3D growth” value in experiment [9] and in experiment [11] was “responded” throughout.

Take `CC1(N)CCN(c2cnc(-c3cccc(Cl)c3Cl)c(N)n2)CC1` [SHP099]: the “activity in 2D proliferation assays” value in [3] is “no activity”. Moreover, the “effect in 3D proliferation” value in experiment [7] (Q61L/H and G12R KRAS mutant tumor cells) was “no effects were detectable”. In addition, the IC50 in [7] (KRAS G12C, a subset of G12D cell lines, and one G12S cell line) was 167 to 790 nM; in [7] (KRAS G13D and G12V cells) it was 1180 to 4410 nM.
